Measurements taken from the NIST ThermoML archive (doi:10.1016/j.jct.2019.05.002).

Experiment: xn = mol fraction of the nth substance listed
Conditions: 100 kPa, Liquid; for speed of sound: Frequency=3 MHz, Single path-length method; for mass density: Vibrating tube method

OCCCCO [1,4-butanediol] + CCCC(=O)OCC
Conditions	mass density [kg/m3]	speed of sound [m/s]
298.15 K, x2 = 0	1012.8	1601.9
298.15 K, x2 = 0.1009	998.83	1558.5
298.15 K, x2 = 0.1986	985.3	1516.5
298.15 K, x2 = 0.3254	967.74	1461.9
298.15 K, x2 = 0.4231	954.2	1419.9
298.15 K, x2 = 0.5008	943.44	1386.5
298.15 K, x2 = 0.5895	931.16	1348.4
298.15 K, x2 = 0.7128	914.08	1295.3
298.15 K, x2 = 0.8015	901.8	1257.2
298.15 K, x2 = 0.9105	886.7	1210.3
303.15 K, x2 = 0	1009.77	1590.3
303.15 K, x2 = 0.1009	995.55	1545.9
303.15 K, x2 = 0.1986	981.78	1503
303.15 K, x2 = 0.3254	963.91	1447.4
303.15 K, x2 = 0.4231	950.15	1404.4
303.15 K, x2 = 0.5008	939.2	1370.3
303.15 K, x2 = 0.5895	926.7	1331.4
303.15 K, x2 = 0.7128	909.32	1277.2
303.15 K, x2 = 0.8015	896.82	1238.3
303.15 K, x2 = 0.9105	881.46	1190.4
308.15 K, x2 = 0	1006.74	1578.6
308.15 K, x2 = 0.1009	992.28	1533.4
308.15 K, x2 = 0.1986	978.27	1489.5
308.15 K, x2 = 0.3254	960.1	1432.7
308.15 K, x2 = 0.4231	946.09	1388.9
308.15 K, x2 = 0.5008	934.96	1354
308.15 K, x2 = 0.5895	922.24	1314.2
308.15 K, x2 = 0.7128	904.57	1258.9
308.15 K, x2 = 0.8015	891.85	1219.2
308.15 K, x2 = 0.9105	876.23	1170.3
313.15 K, x2 = 0	1003.7	1567
313.15 K, x2 = 0.1009	988.99	1520.7
313.15 K, x2 = 0.1986	974.75	1476
313.15 K, x2 = 0.3254	956.27	1417.9
313.15 K, x2 = 0.4231	942.03	1373.2
313.15 K, x2 = 0.5008	930.7	1337.6
313.15 K, x2 = 0.5895	917.77	1297
313.15 K, x2 = 0.7128	899.8	1240.5
313.15 K, x2 = 0.8015	886.87	1199.9
313.15 K, x2 = 0.9105	870.99	1150
318.15 K, x2 = 0	1000.67	1555.3
318.15 K, x2 = 0.1009	985.72	1508.1
318.15 K, x2 = 0.1986	971.24	1462.5
318.15 K, x2 = 0.3254	952.45	1403.2
318.15 K, x2 = 0.4231	937.98	1357.6
318.15 K, x2 = 0.5008	926.46	1321.3
318.15 K, x2 = 0.5895	913.32	1279.8
318.15 K, x2 = 0.7128	895.05	1222.2
318.15 K, x2 = 0.8015	881.9	1180.7
318.15 K, x2 = 0.9105	865.75	1129.8
323.15 K, x2 = 0	997.63	1543.7
323.15 K, x2 = 0.1009	982.43	1495.6
323.15 K, x2 = 0.1986	967.72	1449
323.15 K, x2 = 0.3254	948.62	1388.6
323.15 K, x2 = 0.4231	933.91	1342
323.15 K, x2 = 0.5008	922.21	1305
323.15 K, x2 = 0.5895	908.85	1262.7
323.15 K, x2 = 0.7128	890.28	1204
323.15 K, x2 = 0.8015	876.92	1161.7
323.15 K, x2 = 0.9105	860.51	1109.8

CC(O)CCO (stereo not given) [1,3-butanediol] + CCCC(=O)OCC
Conditions	mass density [kg/m3]	speed of sound [m/s]
298.15 K, x2 = 0	1001.87	1527.9
298.15 K, x2 = 0.1034	988.68	1491.1
298.15 K, x2 = 0.203	975.97	1455.7
298.15 K, x2 = 0.305	962.97	1419.4
298.15 K, x2 = 0.3835	952.95	1391.4
298.15 K, x2 = 0.4936	938.91	1352.2
298.15 K, x2 = 0.5811	927.76	1321.1
298.15 K, x2 = 0.6878	914.14	1283.1
298.15 K, x2 = 0.7997	899.87	1243.3
298.15 K, x2 = 0.8818	889.39	1214.1
303.15 K, x2 = 0	998.41	1514
303.15 K, x2 = 0.1034	985.01	1476.5
303.15 K, x2 = 0.203	972.1	1440.3
303.15 K, x2 = 0.305	958.89	1403.3
303.15 K, x2 = 0.3835	948.71	1374.8
303.15 K, x2 = 0.4936	934.45	1334.8
303.15 K, x2 = 0.5811	923.12	1303.1
303.15 K, x2 = 0.6878	909.28	1264.3
303.15 K, x2 = 0.7997	894.79	1223.7
303.15 K, x2 = 0.8818	884.14	1193.9
308.15 K, x2 = 0	994.94	1500.1
308.15 K, x2 = 0.1034	981.34	1461.9
308.15 K, x2 = 0.203	968.23	1425
308.15 K, x2 = 0.305	954.82	1387.2
308.15 K, x2 = 0.3835	944.49	1358.2
308.15 K, x2 = 0.4936	930.01	1317.4
308.15 K, x2 = 0.5811	918.51	1285.1
308.15 K, x2 = 0.6878	904.47	1245.5
308.15 K, x2 = 0.7997	889.75	1204.1
308.15 K, x2 = 0.8818	878.94	1173.7
313.15 K, x2 = 0	991.49	1486.2
313.15 K, x2 = 0.1034	977.69	1447.2
313.15 K, x2 = 0.203	964.38	1409.6
313.15 K, x2 = 0.305	950.77	1371.2
313.15 K, x2 = 0.3835	940.28	1341.5
313.15 K, x2 = 0.4936	925.59	1300
313.15 K, x2 = 0.5811	913.91	1267
313.15 K, x2 = 0.6878	899.66	1226.8
313.15 K, x2 = 0.7997	884.72	1184.6
313.15 K, x2 = 0.8818	873.76	1153.6
318.15 K, x2 = 0	988.02	1472.3
318.15 K, x2 = 0.1034	974.01	1432.6
318.15 K, x2 = 0.203	960.49	1394.3
318.15 K, x2 = 0.305	946.68	1355.1
318.15 K, x2 = 0.3835	936.03	1324.9
318.15 K, x2 = 0.4936	921.1	1282.6
318.15 K, x2 = 0.5811	909.25	1249
318.15 K, x2 = 0.6878	894.78	1208
318.15 K, x2 = 0.7997	879.61	1165
318.15 K, x2 = 0.8818	868.48	1133.4
323.15 K, x2 = 0	984.56	1458.4
323.15 K, x2 = 0.1034	970.34	1417.9
323.15 K, x2 = 0.203	956.63	1378.9
323.15 K, x2 = 0.305	942.62	1339
323.15 K, x2 = 0.3835	931.81	1308.3
323.15 K, x2 = 0.4936	916.67	1265.2
323.15 K, x2 = 0.5811	904.65	1231
323.15 K, x2 = 0.6878	889.97	1189.2
323.15 K, x2 = 0.7997	874.58	1145.4
323.15 K, x2 = 0.8818	863.28	1113.3

CCC(O)CO (stereo not given) [1,2-butanediol] + CCCC(=O)OCC
Conditions	mass density [kg/m3]	speed of sound [m/s]
298.15 K, x2 = 0	998.56	1452.5
298.15 K, x2 = 0.1011	986	1424.2
298.15 K, x2 = 0.2032	973.31	1395.5
298.15 K, x2 = 0.3034	960.87	1367.4
298.15 K, x2 = 0.4004	948.81	1340.2
298.15 K, x2 = 0.5064	935.64	1310.5
298.15 K, x2 = 0.6021	923.76	1283.6
298.15 K, x2 = 0.7043	911.06	1254.9
298.15 K, x2 = 0.8009	899.06	1227.9
298.15 K, x2 = 0.9012	886.59	1199.7
303.15 K, x2 = 0	994.75	1437.9
303.15 K, x2 = 0.1011	982.02	1408.9
303.15 K, x2 = 0.2032	969.16	1379.6
303.15 K, x2 = 0.3034	956.55	1350.9
303.15 K, x2 = 0.4004	944.33	1323
303.15 K, x2 = 0.5064	930.98	1292.6
303.15 K, x2 = 0.6021	918.93	1265.2
303.15 K, x2 = 0.7043	906.06	1235.8
303.15 K, x2 = 0.8009	893.9	1208.1
303.15 K, x2 = 0.9012	881.27	1179.3
308.15 K, x2 = 0	990.92	1423.3
308.15 K, x2 = 0.1011	978.03	1393.7
308.15 K, x2 = 0.2032	965.01	1363.7
308.15 K, x2 = 0.3034	952.23	1334.3
308.15 K, x2 = 0.4004	939.86	1305.9
308.15 K, x2 = 0.5064	926.34	1274.8
308.15 K, x2 = 0.6021	914.14	1246.7
308.15 K, x2 = 0.7043	901.11	1216.7
308.15 K, x2 = 0.8009	888.79	1188.4
308.15 K, x2 = 0.9012	876	1159
313.15 K, x2 = 0	987.11	1408.7
313.15 K, x2 = 0.1011	974.05	1378.4
313.15 K, x2 = 0.2032	960.87	1347.8
313.15 K, x2 = 0.3034	947.93	1317.8
313.15 K, x2 = 0.4004	935.41	1288.7
313.15 K, x2 = 0.5064	921.72	1256.9
313.15 K, x2 = 0.6021	909.36	1228.3
313.15 K, x2 = 0.7043	896.16	1197.6
313.15 K, x2 = 0.8009	883.69	1168.7
313.15 K, x2 = 0.9012	870.74	1138.6
318.15 K, x2 = 0	983.28	1394.1
318.15 K, x2 = 0.1011	970.05	1363.2
318.15 K, x2 = 0.2032	956.7	1331.9
318.15 K, x2 = 0.3034	943.59	1301.2
318.15 K, x2 = 0.4004	930.9	1271.5
318.15 K, x2 = 0.5064	917.03	1239.1
318.15 K, x2 = 0.6021	904.51	1209.8
318.15 K, x2 = 0.7043	891.14	1178.5
318.15 K, x2 = 0.8009	878.51	1148.9
318.15 K, x2 = 0.9012	865.39	1118.2
323.15 K, x2 = 0	979.46	1379.5
323.15 K, x2 = 0.1011	966.07	1347.9
323.15 K, x2 = 0.2032	952.55	1316
323.15 K, x2 = 0.3034	939.28	1284.7
323.15 K, x2 = 0.4004	926.44	1254.4
323.15 K, x2 = 0.5064	912.4	1221.3
323.15 K, x2 = 0.6021	899.72	1191.4
323.15 K, x2 = 0.7043	886.19	1159.4
323.15 K, x2 = 0.8009	873.4	1129.2
323.15 K, x2 = 0.9012	860.11	1097.9
